Paper PMC9500858 (International Journal of Molecular Sciences, 2022)

How the values were obtained:
[1] = Oxidative degradation (30% H2O2), LC-MS; format: physicochemical; settings: n = 3
Method: (§1) The separation was carried out using Kinetex XB-C18 column (150 mm × 2.1 mm × 1.7 μm; Phenomenex, Torrance, CA, USA). The mobile phase consisted of A: 0.1% formic acid in deionized water and B: 0.1% formic acid in acetonitrile (MeCN). The two-step gradient was used from 5% B to 50% B in 13 min and from 50% B to 65% B up to 20 min. The column temperature was maintained at 25 °C with a flow rate equal to 0.3 mL/min. The eluate was introduced directly to the mass spectrometer. The ion trap setting was as follows: capillary voltage 4500 V, endplate offset 500 V, nebulizer pressure 40 psi, drying gas temperature 145 °C and gas flow rate 9 L/min. The instrument used a smart parameter setting (SPS) fixed at 1000 amu. The scan range was from m/z = 70 to m/z = 2200. Compounds were analyzed in […] ion mode.
(§2) Before LC analysis, the ionization of each quantified compound in the positive ion mode was optimized by the direct injection of standard (50 µg/mL in 0.1% HCOOH in H2O; 0.3 mL/min) into the ESI source of the mass spectrometer. The intensity of the most abundant ion for each compound was monitored in order to choose optimal conditions. The quantification of investigated compounds was performed using the dominating ion (for both PK20 and [Ile^9] PK20 the ion at m/z =1357.40 ± 0.3, retention time ca. 11.2 min).
(§3) The calibration curves were plotted as the amount of injected compound (ng) vs. detector response (peak area) using extracted ion chromatograms (EIC) for the characteristic ion for each compound. The linear range for each quantified compound was between 5 and 200 ng per injection. Five amount levels were used for the plotting of curves. Samples at each level were analyzed in triplicate.
(§4) The stability of PK20 and [Ile^9]PK20 was tested under acidic, basic, oxidative, heat, freeze and ultraviolet light conditions. All experiments were conducted in triplicate (n = 3). The comparison of peak areas in degradative and non-degradative conditions for both compounds can be observed in Figure 3 and Figure 4.
PK20 and [Ile^9]PK20 solution (50 μg/mL) was prepared in 30% (v/v) hydrogen peroxide (H2O2). Aliquots were incubated at 37 °C for 24 h and 80 °C for 12 h. After the incubation, each drug solution was diluted with an equal volume of 0.2% formic acid in acetonitrile and analyzed with LC-MS.

[2] = Base hydrolysis (1 M NaOH) forced degradation, LC-MS; format: physicochemical; settings: for Recovery / Concentration Found (Mean ± SD): basic degradation, 50 μg/mL in 1 M NaOH, n = 3; for Concentration Found (Mean ± SD): neutralised with 1 M HCl; for half-life (t1/2) in 1M NaOH: calculated half-life, alkaline conditions, 50 μg/mL, temperature not given for the half-life
Method: as §1, §2, §3, §4
(§5) Drug solution (50 μg/mL) was prepared in HCl (1 M) or NaOH (1 M). Aliquots were kept at a temperature of 80 °C (LBK type water bath, SWL Bytom, Poland) for 12 h and 37°C (medical water bath, LW102, Auritronic, Krakow, Poland) for 24 h. At a specific time-point, acidic and basic solutions of both PK20 and [Ile^9]PK20 were neutralized with an equal volume of 1 M NaOH or 1 M HCl, respectively, and diluted with an equal volume of 0.2% formic acid in acetonitrile and analyzed using LC-MS.

[3] = Acid hydrolysis (1 M HCl) forced degradation, LC-MS; format: physicochemical; settings: for Recovery / Concentration Found (Mean ± SD): acidic degradation, 50 μg/mL in 1 M HCl, n = 3; for Concentration Found (Mean ± SD): neutralised with 1 M NaOH; for half-life in 1M HCl: calculated half-life, acidic conditions, 50 μg/mL, temperature not given for the half-life
Method: as §1, §2, §3, §4, §5

[4] = Thermal degradation and freeze-thaw in Mili-Q water, LC-MS; format: physicochemical; settings: 50 μg/mL in Mili-Q water; for Concentration Found (Mean ± SD) / Recovery: n = 3
Method: as §1, §2, §3, §4
Solutions (50 μg/mL) of both hybrid peptides were prepared in Mili-Q water, and aliquots were kept at room temperature 22 °C, 37 °C and −80 °C for 24 h and at 80 °C for 12 h. One aliquot was also subjected to two freeze–thaw cycles with the sample first frozen at −80°C for 24 h, defrosted under running tap water at room temperature for 2 h and second frozen at −20°C for 24 h and defrosted under running tap water at room temperature for 2 h. Then, the solutions of PK20 and [Ile^9]PK20 were diluted with an equal volume of 0.2% formic acid in acetonitrile and analyzed with LC-MS.

[5] = Photolytic (UV) degradation in Mili-Q water, LC-MS; format: physicochemical; settings: 365 nm UV light, 7 h, 50 μg/mL in Mili-Q water, clear plastic vials, n = 3
Method: as §1, §2, §3, §4
PK20 and [Ile^9]PK20 solution (50 μg/mL) was prepared in Mili-Q water, and aliquots were kept in clear plastic vials exposed to UV light (366 nm, Camag, UV Lamp 4, Camag, Switzerland) for 7 h. After the incubation, the drug solution was diluted with an equal volume of 0.2% formic acid in acetonitrile and analyzed with LC-MS.

[6] = biological target: mu opioid receptor; settings: intrinsic activity of the receptor; read-out: EC50 (potency) at mu opioid receptor; cited from earlier work
Text: (§6) Since hybrid compounds have gained attention due to their potent multifunctional behavior with a more favorable profile in terms of possible side effects, much work devoted to such compounds can be found. PK20 and [Ile^9]PK20, which are hybrid structures encompassing both opioid and neurotensin pharmacophores, although modified, were designed and synthesized to reduce pain.

[7] = test system: NTS1 neurotensin receptor; settings: replacement of Tle with Ile; cited from earlier work
Text: (§7) Tle and Ile are structural isomers belonging to the same class of leucines with the same atomic composition (C6H13NO2) but they have different chemical structures, including different bond coordination and stereochemistry (Figure 1). Thus, their presence in the peptide structure led to diverse results. In fact, incorporation of Ile into the 9th position of the peptide chain caused a decrease in the analgesic activity in vivo when compared with PK20, having a tert-leucine (Tle9) in the corresponding position. Nonetheless, [Ile^9]PK20 produced the maximal pain-relieving effect, although wi ...

[8] = test system: mu opioid receptor; settings: replacement of Tle with Ile; cited from earlier work
Text: as §7

[9] = 0.005 nmol/rat at 120 min and 0.02 nmol/rat at 30, 60 and 120 min; cited from earlier work
Text: as §6

[10] = 50 μg/mL in 30% (v/v) H2O2, 37 °C, 24 h
[11] = 50 μg/mL in 30% (v/v) H2O2, 80 °C, 12 h
[12] = 37 °C, 24 h, LC-MS (EIC m/z 1357.40)
[13] = thermal degradation, 37 °C, 24 h
[14] = thermal degradation, 80 °C, 12 h
[15] = thermal degradation, room temperature (22 °C), 24 h
[16] = thermal degradation, −80 °C, 24 h
[17] = thermal, temperatures ranging from 22 °C through 37 °C to +80 °C
[18] = two freeze–thaw cycles (24 h −80 °C, 2 h 22 °C, 24 h −20 °C)

For “HELM PEPTIDE1{[Cc1cc(O)cc(C)c1C[C@H](N)C(=O)[*:2]].[dK].F.F.K.K.P.F.[CC(C)(C)[C@H](N[*:1])C(=O)[*:2]].L}$$$$V2.0 (N-terminus assumed; SMILES Cc1cc(O)cc(C)c1C[C@H](N)C(=O)N[C@H](CCCCN)C(=O)N[C@@H](Cc1ccccc1)C(=O)N[C@@H](Cc1ccccc1)C(=O)N[C@@H](CCCCN)C(=O)N[C@@H](CCCCN)C(=O)N1CCC[C@H]1C(=O)N[C@@H](Cc1ccccc1)C(=O)N[C@H](C(=O)N[C@@H](CC(C)C)C(=O)O)C(C)(C)C) [PK20, opioid–neurotensin hybrid peptide]”, the “Concentration Found (Mean ± SD)” value [1, 10] was 30520 ± 490 ng/mL, the Recovery [1, 10] was 61.04% and the “Concentration Found (Mean ± SD)” value [1, 11] was 9800 ± 200 ng/mL. The Recovery [1, 11] was 19.60%, the Recovery ([2]; 37 °C, 24 h) was 30.32% and the “Concentration Found (Mean ± SD)” value ([2]; 37 °C, 24 h) was 15160 ± 340 ng/mL. For the same substance, the Recovery ([2]; 80 °C, 12 h) was 11.44%, the “Concentration Found (Mean ± SD)” value ([2]; 80 °C, 12 h) was 5710 ± 1670 ng/mL and the “half-life (t1/2) in 1M NaOH” value [2] was 11.36 h. The Recovery ([3]; 37 °C, 24 h, LC-MS) was 78.19%, the “Concentration Found (Mean ± SD)” value [3, 12] was 39090 ± 6330 ng/mL and the Recovery ([3]; 80 °C, 12 h, LC-MS) was 54.43%. For the same substance, the “Concentration Found (Mean ± SD)” value ([3]; 80 °C, 12 h, LC-MS) was 27220 ± 2750 ng/mL, the “half-life in 1M HCl” value ([3]; LC-MS) was 204.4 h and the “Concentration Found (Mean ± SD)” value [4, 13] was 49980 ± 350 ng/mL. The Recovery [4, 13] was 99.97%, the “Concentration Found (Mean ± SD)” value [4, 14] was 48670 ± 2740 ng/mL and the Recovery [4, 14] was 97.34%. For the same substance, the “Concentration Found (Mean ± SD)” value [4, 15] was 51360 ± 1640 ng/mL, the Recovery [4, 15] was 102.72% and the “Concentration Found (Mean ± SD)” value [4, 16] was 51900 ± 200 ng/mL. For the same substance, the Recovery [4, 16] was 103.80%, the “remaining concentration of the peptide” value [4, 17] was “approximately 50 μg/mL” and the “remaining peptide as percentage” value [4, 17] was about 100%. The “Concentration Found (Mean ± SD)” value [4, 18] was 43250 ± 9420 ng/mL, the Recovery [4, 18] was 86.50% and the “Concentration Found (Mean ± SD)” value [5] was 18720 ± 940 ng/mL. The Recovery [5] was 37.44% and the EC50 [6] was 79 nM.

For “HELM PEPTIDE1{[Cc1cc(O)cc(C)c1C[C@H](N)C(=O)[*:2]].[dK].F.F.K.K.P.F.I.L}$$$$V2.0 (N-terminus assumed; SMILES CC[C@H](C)[C@H](NC(=O)[C@H](Cc1ccccc1)NC(=O)[C@@H]1CCCN1C(=O)[C@H](CCCCN)NC(=O)[C@H](CCCCN)NC(=O)[C@H](Cc1ccccc1)NC(=O)[C@H](Cc1ccccc1)NC(=O)[C@@H](CCCCN)NC(=O)[C@@H](N)Cc1c(C)cc(O)cc1C)C(=O)N[C@@H](CC(C)C)C(=O)O) [[Ile^9]PK20, analogue of PK20 with Ile instead of Tle at position 9]”, the “Concentration Found (Mean ± SD)” value [1, 10] was 31390 ± 270 ng/mL, the Recovery [1, 10] was 62.79% and the “Concentration Found (Mean ± SD)” value [1, 11] was 8240 ± 6690 ng/mL. For the same substance, the Recovery [1, 11] was 16.48%, the “binding at NTS1 neurotensin receptor relative to PK20” value [7] was “reduced binding” and the “binding at mu opioid receptor relative to PK20” value [8] was “reduced binding”. The Recovery ([2]; 37 °C, 24 h) was 37.13%, the “Concentration Found (Mean ± SD)” value ([2]; 37 °C, 24 h) was 18560 ± 590 ng/mL and the Recovery ([2]; 80 °C, 12 h) was 11.23%. The “Concentration Found (Mean ± SD)” value ([2]; 80 °C, 12 h) was 5610 ± 1830 ng/mL, the “half-life (t1/2) in 1M NaOH” value [2] was 4.69 h and the Recovery ([3]; 37 °C, 24 h, LC-MS) was 88.79%. For the same substance, the “Concentration Found (Mean ± SD)” value [3, 12] was 44390 ± 4480 ng/mL, the Recovery ([3]; 80 °C, 12 h, LC-MS) was 52.25% and the “Concentration Found (Mean ± SD)” value ([3]; 80 °C, 12 h, LC-MS) was 26120 ± 1520 ng/mL. For the same substance, the “half-life in 1M HCl” value ([3]; LC-MS) was 117.7 h, the “Concentration Found (Mean ± SD)” value [4, 13] was 44160 ± 990 ng/mL and the Recovery [4, 13] was 88.32%. For the same substance, the “Concentration Found (Mean ± SD)” value [4, 14] was 43270 ± 1180 ng/mL, the Recovery [4, 14] was 86.54% and the “Concentration Found (Mean ± SD)” value [4, 15] was 49710 ± 2240 ng/mL. The Recovery [4, 15] was 99.41%, the “Concentration Found (Mean ± SD)” value [4, 16] was 51870 ± 400 ng/mL and the Recovery [4, 16] was 103.74%. The “Concentration Found (Mean ± SD)” value [4, 18] was 49040 ± 1030 ng/mL, the “Concentration Found (Mean ± SD)” value [5] was 9630 ± 110 ng/mL and the Recovery [5] was 19.25%. For the same substance, the “induced analgesia compared to PK20” value [9] was “significantly lower” and the EC50 [6] was 1240 nM.
